Here are results for 49 compounds from patent US11396501B2, “Heteroaryl compounds as CXCR4 inhibitors, composition and method using the same” (CGENETECH (SUZHOU, CHINA) CO., LTD., priority 2017, dated 2022).

The first experiment deals with T1, CXCR4 (Homo sapiens, UniProt P61073). The experiment in a line: HPB-ALL CXCR4 competitive binding assay (12G5 binding assay). Set-up: HPB-ALL cells were maintained in RPMI-1640 (Gibico) supplemented with 10% FBS (Hyclone); endogenous in cells; host or cells: HPB-ALL cells. The note with it: HPB-ALL cells; competition with APC-conjugated anti-human CXCR4 clone 12G5 at its EC80; 4° C. for 3 h; FACS. The procedure: HPB-ALL CXCR4 Competitive Binding Assay
T1 sequence (P61073 whole entry): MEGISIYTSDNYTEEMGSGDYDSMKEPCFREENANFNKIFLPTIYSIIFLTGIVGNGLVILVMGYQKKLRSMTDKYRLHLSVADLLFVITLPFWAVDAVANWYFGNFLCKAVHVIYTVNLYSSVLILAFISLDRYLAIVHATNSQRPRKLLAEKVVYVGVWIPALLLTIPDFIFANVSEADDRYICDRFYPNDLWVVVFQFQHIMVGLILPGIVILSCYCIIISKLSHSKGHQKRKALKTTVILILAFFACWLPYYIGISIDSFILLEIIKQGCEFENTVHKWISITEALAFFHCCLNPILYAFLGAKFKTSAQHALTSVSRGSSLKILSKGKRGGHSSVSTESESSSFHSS
HPB-ALL cells were maintained in RPMI-1640 (Gibico) supplemented with 10% FBS (Hyclone). APC-conjugated anti-human CXCR4 was from Sungene. EC80 was first determined for 12G5 binding to CXCR4. Then the compounds for testing were added into 96-well plates serially diluted at a ratio of 1:3. Cells were washed once with ice-cold assay buffer (DPBS+2% HI-FBS) and then re-suspended in the same buffer at a final concentration of 1×10^6/mL. Cell suspension was then added into the wells and with the addition of APC-conjugated anti-human CXCR4 clone 12G5 at its EC80 determined. The mix of cell, compounds and APC-conjugated anti-human CXCR4 were incubated at 4° C. for 3 h before addition of 100 μL of 4% PFA. Cells were then washed once and resuspended in assay buffer and examined by FACS. The percent (%) effect at each concentration of compound was calculated and relative to the amount of calcium produced in the positive and negative control wells contained within each assay plate. The concentrations and % effect values for tested compounds were plotted and the concentration of compound required for 50% effect (IC50) was determined. Tables 2 summarize results of the CXCR4 competitive binding assay for selected compounds disclosed in the present disclosure. FIGS. 1-2 depict the IC50 curves of compounds A42 and A43.
What is called IC50 is the concentration at which inhibition is half-maximal. Compound `CN1CCN(c2cc(CN(C)C3CCCc4cccnc43)nc(N3CCCC3)n2)CC1` (stereo not shown) [Compound A13] had a 50% inhibitory concentration (IC50) of 8000 nM.

`CN(Cc1cc(N2CCN(CC3CC3)CC2)ncn1)C1CCCc2cccnc21` (stereo not shown) [Compound A60] displayed a half-inhibitory concentration (IC50) of 464 nM.

Turning to `Cc1nc([C@@H]2CCCCN2[C@@H]2CCCc3cccnc32)cc(N2CCN(C)CC2)n1` [Compound C8], the IC50 was found to be 6960 nM.

As for `Cc1ccc(C(C)N(C)Cc2cc(N3CCN(C)CC3)nc(C)n2)nc1` (stereo not shown) [Compound A55], the IC50 came to 44 nM.

`CN(Cc1cc(N2CCN(CCO)CC2)ncn1)C1CCCc2cccnc21` (stereo not shown) [Compound A5] registered an IC50 of 113 nM.

The compound `Cc1nc(CN(C)C2CC3(CC3)Cc3cccnc32)cc(N2CCN(C)CC2)n1` (stereo not shown) [Compound A46] registered an IC50 of 161 nM.

`Cc1cccc([C@@H]2CCCN2Cc2cc(N3CCN(C)CC3)nc(C)n2)n1` [Compound C28] displayed an IC50 of 2280 nM.

Compound `CC(C)c1nc(CN(C)C2CCCc3cccnc32)cc(N2CCN(C)CC2)n1` (stereo not shown) [Compound A29] registered a 50% inhibitory concentration (IC50) of 78 nM.

For the compound `CSc1nc([C@H](C)N(C)[C@@H]2CCCc3cccnc32)cc(N2CCN(C)CC2)n1` [Compound A33], the IC50 was determined as 268 nM.

Compound `Cc1nc(CN(C)C(C)c2ncccc2C)cc(N2CCN(C)CC2)n1` (stereo not shown) [Compound A53] returned an IC50 of 33 nM.

The compound `Cc1nc(CN(C)[C@H]2CCCc3cccnc32)cc(NCCCN2CCOCC2)n1` [Compound A70] registered an IC50 of 54 nM.

`CCN(Cc1cc(N2CCN(C)CC2)nc(C)n1)C1CCCc2cccnc21` (stereo not shown) [Compound A57] gave an IC50 of 21 nM.

With `CC(C)Oc1nc(CN(C)C2CCCc3cccnc32)cc(N2CCN(C)CC2)n1` (stereo not shown) [Compound A31], the IC50 was 77 nM.

As for `CN(Cc1cc(N2CCNCC2)ncn1)C1CCCc2cccnc21` (stereo not shown) [Compound A7, N-methyl-N-((6-(piperazin-1-yl)pyrimidin-4-yl)methyl)-5,6,7,8-tetrahydroquinolin-8-amine], the IC50 amounted to 393 nM.

Consider `Cc1ccc([C@@H]2CCCN2Cc2cc(N3CCN(C)CC3)nc(C)n2)nc1` [Compound C27], for which the IC50 came to 279 nM.

The compound `CN1CCN(c2cc(CN(C)C3CCCc4cccnc43)nc(N3CCOCC3)n2)CC1` (stereo not shown) [Compound A14] gave an IC50 of 2250 nM.

As to `CCN(Cc1cc(N2CCN(C)CC2)nc(C)n1)[C@H]1CCCc2cccnc21` [Compound A58], the 50% inhibitory concentration (IC50) worked out at 19 nM.

With `CCOc1nc(CN(C)C2CCCc3cccnc32)cc(N2CCN(C)CC2)n1` (stereo not shown) [Compound A30], the IC50 is 65 nM.

`CSc1nc([C@@H](C)N(C)[C@H]2CCCc3cccnc32)cc(N2CCN(C)CC2)n1` [Compound A34] came in with an IC50 of 47 nM.

In the case of `CN1CCN(c2cc(N(C)CC3CCCc4cccnc43)ncn2)CC1` (stereo not shown) [Compound B1], the IC50 is greater than 10000 nM.

In turn, `CSc1nc(CN(C)C2c3ncccc3CCC23CC3)cc(N2CCN(C)CC2)n1` (stereo not shown) [Compound A40] registered a half-maximal inhibitory concentration (IC50) of 110 nM.

`Cc1nc([C@H]2CCCN2[C@H]2CCCc3cccnc32)cc(N2CCN(C)CC2)n1` [Compound C5] had an IC50 of 20 nM.

Compound `CN1CCN(c2cc(CN(C)C3CCCc4cccnc43)nc(C3CC3)n2)CC1` (stereo not shown) [Compound A11] yielded a 50% inhibitory concentration (IC50) of 26 nM.

`CN(Cc1cc(N2CCN(CCC#N)CC2)ncn1)C1CCCc2cccnc21` (stereo not shown) [Compound A8, 3-(4-(6-((methyl(5,6,7,8-tetrahydroquinolin-8-yl)amino)methyl)pyrimidin-4-yl)piperazin-1-yl)propanenitrile] gave an IC50 of 242 nM.

In turn, `Cc1nc([C@H]2CC(F)(F)CN2[C@H]2CCCc3cccnc32)cc(N2CCN(C)CC2)n1` [Compound C19] came in with a half-maximal inhibitory concentration (IC50) of 1710 nM.

`CN(Cc1cc(NCCN2CCOCC2)ncn1)C1CCCc2cccnc21` (stereo not shown) [Compound A26] displayed an IC50 of 41 nM.

`Cc1nc(CN2CCCC2c2ccccn2)cc(N2CCN(C)CC2)n1` (stereo not shown) [Compound C12] gave an IC50 of 165 nM.

For `Cc1nc(CN(C)C2CCCc3cccnc32)c(C#N)c(N2CCN(C)CC2)n1` (stereo not shown) [Compound A77], the IC50 was determined as 9 nM.

`CNc1nc(CN(C)C2CCCc3cccnc32)cc(N2CCN(C)CC2)n1` (stereo not shown) [Compound A18] returned an IC50 of 43 nM.

With `Cc1nc(CN(C)[C@H]2CCCc3cccnc32)cc(N2CCN(C)[C@@H](C)C2)n1` [Compound A66], the IC50 amounted to 20 nM.

On to `COCCN1CCN(c2cc(CN(C)C3CCCc4cccnc43)ncn2)CC1` (stereo not shown) [Compound A6], for which the IC50 was 1140 nM.

`CSc1nc([C@@H]2CCCN2[C@@H]2CCCc3cccnc32)cc(N2CCN(C)CC2)n1` [Compound C4] displayed an IC50 of 2320 nM.

In turn, `CSc1nc(CN(C)C2CCCc3cccnc32)cc(N2CCN(C)CC2)n1` (stereo not shown) [Compound A3] came in with an IC50 of 19 nM.

Compound `CN(C)C1CCN(c2cc(CN(C)C3CCCc4cccnc43)ncn2)CC1` (stereo not shown) [Compound A25] yielded a half-maximal inhibitory concentration (IC50) of 100 nM.

Another experiment deals with T1, CXCR4. The experiment is described as follows: FLIPR Tetra calcium mobilization assay. The format is cell-based. Conditions: Human CD4+ T-Cells; CXCL12 added; FLIPR Calcium 4 assay kit. On the procedure: FLIPR Tetra Calcium Mobilization Assay The FLIPR Tetra calcium mobilization assay was performed by HD Bioscience. Briefly, The Molecular Devices, Fluorescent Imaging Plate Reader (FLIPR) Tetra was used in this assay. Excitation was achieved through unique placement of LED's within the instrument and emission captured by a CCD camera (EMCCD camera for FI and ICCD camera for luminescence). The homogeneous FLIPR Calcium 4 assay kit from Molecular Devices was used as the fluorescence reagent. Compounds were solubilized in 100% dimethyl sulfoxide (DMSO) to a concentration of 30 mM. A 10-point, 4-fold, intermediate dilution series was created in 100% DMSO with a top concentration of 4 mM and a bottom concentration of 0.01 μM. A near assay ready, direct dilution plate ([…]) was prepared from this compound dilution plate by transferring 1 μL of each dilution of compound in 100% DMSO to a Greiner #781201 plate. In addition, each […] plate also contained positive and negative control wells to define the upper and lower limits for the assay signal. The final assay concentration range of compound was 10 μM to 0.035 nM in 0.5% DMSO. Human CD^4+ T-Cells were isolated from human whole blood and subsequently activated and expanded using a CD3/CD28 expansion kit (Life Technologies). The cells were frozen in ThermoFisher-formulated Recovery Cell Culture Freezing Medium containing 10% Dimethyl sulfoxide (DMSO) and 10% Fetal Bovine Serum (FBS) (ThermoFisher Catalog No. 10100147). When used, cells were resuspended using room temperature 1× HBSS/20 mM HEPES/0.005% P-104 assay buffer, adjusted the volume of the suspension to achieve a cell concentration of 2.5×10^6 cells/mL. 2× Calcium 4 dye (20 μL/well) were added and the mixture were centrifuged briefly ( 10 s) and stopped when it reached 1000 rpm. The plates were allowed to equilibrate before compounds and CXCL12 were added to the plates. The raw data were analyzed using Abase. The percent (%) effect at each concentration of compound was calculated by Abase and was based on and relative to the amount of calcium produced in the positive and negative control wells contained within each assay plate. The concentrations and % effect values for tested compounds were plotted by Abase and the concentration of compound required for 50% effect (IC50) was determined with a four-parameter logistic dose response equation. FIGS. 3 and 4 summarize the results of Compounds A78 and A83 in the calcium mobilization assay.
In general terms: Calcium flux is commonly read through the fluorescence of an indicator in the cells.
As to `CN1CCN(c2cccc3nc(CN(C)c4cccc5cccnc45)c(CO)n23)CC1` [Compound D39], the IC50 was determined as 0.088 nM.

`Cc1nc(CN(C)c2ncnc3cccnc23)cc(N2CCN(C)CC2)n1` [Compound D24]: the IC50 stood at 12400 nM.

For `Cc1nc(CN(C)c2cc(F)cc3cccnc23)cc(N2CCN(C)CC2CO)n1` (stereo not shown) [Compound D52], the IC50 is 4.5 nM.

As for `Cc1nc(CN(C)c2cccc3cccnc23)c(CO)c(N2CCN(C)CC2)n1` [Compound D37], the IC50 stood at 0.95 nM.

For `Cc1nc(CN(C)c2c(CO)ccc3cccnc23)cc(N2CCN(C)CC2)n1` [Compound D56], the IC50 was 5.5 nM.

With `Cc1nc(CN(C)[C@@H](C)c2ccccn2)cc(N2CCN3CCC[C@@H]3C2)n1` [Compound A78], the IC50 was found to be 0.062 nM.

Consider `CN1CCN(c2cccc3nc(CN(C)c4cccc5cccnc45)cn23)CC1` [Compound D38], for which the IC50 stood at 0.18 nM.

Consider `C[C@@H](c1ccccn1)N(C)Cc1nc2cccc(N3CCN(C)CC3)n2c1CO` [Compound A96, (S)-(2-((methyl(1-(pyridin-2-yl)ethyl)amino)methyl)-5-(4-methylpiperazin-1-yl)imidazo[1,2-a]pyridin-3-yl)methanol], for which the 50% inhibitory concentration (IC50) was found to be 0.086 nM.

As to `Cc1nc(CN(C)[C@H]2CCOc3cccnc32)cc(N2CCN(C)CC2)n1` [Compound A91], the IC50 is 0.032 nM.

In the case of `Cc1nc(CN(C)c2cc(C(F)(F)F)cc3cccnc23)cc(N2CCN(C)CC2)n1` [Compound D44], the 50% inhibitory concentration (IC50) worked out at 104 nM.

In the case of `Cc1nc(CN(C)c2cc(CO)cc3cccnc23)cc(N2CCN(C)CC2)n1` [Compound D55, (8-(methyl((2-methyl-6-(4-methylpiperazin-1-yl)pyrimidin-4-yl)methyl)amino)quinolin-6-yl)methanol], the IC50 is 39 nM.

With `Cc1nc(CN(C)c2ccc(NS(C)(=O)=O)c3cccnc23)cc(N2CCN(C)CC2)n1` [Compound D57, N-(8-(methyl((2-methyl-6-(4-methylpiperazin-1-yl)pyrimidin-4-yl)methyl)amino)quinolin-5-yl)methanesulfonamide], the IC50 came to 2880 nM.

For `Cc1nc(CN(C)c2c(Br)ccc3cccnc23)cc(N2CCN(C)CC2)n1` [Compound D49], the IC50 was 4.5 nM.

As to `Cc1nc(CN(C)C2CCOc3cccnc32)cc(N2CCN(C)CC2)n1` (stereo not shown) [Compound A90], the IC50 was 0.046 nM.

Turning to `Cc1nc(CN(C)c2ccc(S(C)(=O)=O)c3cccnc23)cc(N2CCN(C)CC2)n1` [Compound D43, N-methyl-N-((2-methyl-6-(4-methylpiperazin-1-yl)pyrimidin-4-yl)methyl)-5-(methylsulfonyl)quinolin-8-amine], the IC50 stood at 3380 nM.
